Holding throughout (experiment): Test B flooded paddy test
Assay type in all cases: in vivo
Common to all, as to details: Flood, scale 0 to 100

Assay [1] concerns umbrella sedge (Cyperus difformis). An outline of the steps:
(§1)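 Rice, umbrella sedge, duck salad and barnyardgrass grown to 2-leaf stage under flooded paddy conditions and treated with formulated test chemicals. Kept in greenhouse 13–15 days, then visually rated against untreated controls on a 0–100 scale (0 no effect, 100 complete control).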

The next assay concerns rice (Oryza sativa). An outline of the steps:
as §1

Assay [2] concerns barnyardgrass (Echinochloa crus-galli). An outline of the steps: as §1
For assay [3], the system named is duck salad (Heteranthera limosa). An outline of the steps: as §1
The mark [4] stands for this setting: Cyperus difformis, 125 g ai/ha, read-out: Plant response rating, Sedge, Umbrella.
[5] abbreviates: Cyperus difformis, 500 g ai/ha, read-out: Plant response rating, Sedge, Umbrella.
Where [6] appears, read: Oryza sativa, 125 g ai/ha, read-out: Plant response rating, Rice.
Setting [7] is: Oryza sativa, 500 g ai/ha, read-out: Plant response rating, Rice.
Setting [8] is: Echinochloa crus-galli, 125 g ai/ha, read-out: Plant response rating, Barnyardgrass.
The mark [9] stands for this setting: Echinochloa crus-galli, 500 g ai/ha, read-out: Plant response rating, Barnyardgrass.
The mark [10] stands for this setting: Heteranthera limosa, 125 g ai/ha, read-out: Plant response rating, Ducksalad.
Where [11] appears, read: Heteranthera limosa, 500 g ai/ha, read-out: Plant response rating, Ducksalad.

Turning to `COC(=O)c1nc(C2CC2)nc(N)c1OC` [Compound 59], the pest or weed control at 125 g/ha in assay [1] (setting [4]), in assay [2] (setting [8]) and in assay [3] (setting [10]) was 0% each time. The pest or weed control at 500 g/ha in assay [1] (setting [5]), in assay [2] (setting [9]) and in assay [3] (setting [11]) was 0% each time. The plant injury at 125 g/ha in the assay on rice (Oryza sativa) (setting [6]) stood at 0%. Moreover, the plant injury at 500 g/ha in the assay on rice (Oryza sativa) (setting [7]) was found to be 0%.
Regarding `CCOC(=O)c1nc(-c2ccc(Cl)cc2)nc(N)c1Cl` [Compound 64, ethyl 6-amino-5-chloro-2-(4-chlorophenyl)-4-pyrimidinecarboxylate], the pest or weed control at 62 g/ha in assay [1] (Cyperus difformis, 62 g ai/ha, read-out: Plant response rating, Sedge, Umbrella) was found to be 0%; in assay [2] (Echinochloa crus-galli, 62 g ai/ha, read-out: Plant response rating, Barnyardgrass) it was 0%; in assay [3] (Heteranthera limosa, 62 g ai/ha, read-out: Plant response rating, Ducksalad), 80%. For the same compound, the figures for the pest or weed control at 125 g/ha in assay [1] (setting [4]), in assay [2] (setting [8]) and in assay [3] (setting [10]) were 0%, 0% and 90%, respectively. Besides, the pest or weed control at 250 g/ha amounted to 70% in assay [1] (Cyperus difformis, 250 g ai/ha, read-out: Plant response rating, Sedge, Umbrella); 0% in assay [2] (Echinochloa crus-galli, 250 g ai/ha, read-out: Plant response rating, Barnyardgrass); 100% in assay [3] (Heteranthera limosa, 250 g ai/ha, read-out: Plant response rating, Ducksalad). The values for the pest or weed control at 500 g/ha in assay [1] (setting [5]), in assay [2] (setting [9]) and in assay [3] (setting [11]) were 90%, 0% and 100%, respectively. Also, the plant injury at 62 g/ha in the assay with rice (Oryza sativa) (Oryza sativa, 62 g ai/ha, read-out: Plant response rating, Rice) was 0%. The plant injury at 125 g/ha in the assay on rice (Oryza sativa) (setting [6]) was found to be 0%. Also, the plant injury at 250 g/ha in the assay with rice (Oryza sativa) (Oryza sativa, 250 g ai/ha, read-out: Plant response rating, Rice) is 0%. For the same compound, in the assay on rice (Oryza sativa) (setting [7]), the plant injury at 500 g/ha came to 0%.
Take `Cc1ccc(-c2nc(N)c(Cl)c(C(=O)O)n2)cc1` [Compound 91]: the “Plant response rating, Sedge, Umbrella” value came to 80 in assay [1] (125 g ai/ha) and 90 in assay [1] (500 g ai/ha). Moreover, the “Plant response rating, Rice” value in the assay on rice (Oryza sativa) (125 g ai/ha) and in the assay with rice (Oryza sativa) (500 g ai/ha) was 0 throughout. The “Plant response rating, Barnyardgrass” value is listed as 0 in assay [2] (125 g ai/ha) and 20 in assay [2] (500 g ai/ha). Further, the “Plant response rating, Ducksalad” value in assay [3] (125 g ai/ha) and in assay [3] (500 g ai/ha) was 100 each time.
Regarding `COC(=O)c1nc(-c2ccc(Cl)cc2)nc(N)c1Cl` [Compound 58, methyl 6-amino-5-chloro-2-(4-chlorophenyl)-4-pyrimidinecarboxylate], the pest or weed control at 125 g/ha stood at 90% in assay [1] (setting [4]), 0% in assay [2] (setting [8]) and 100% in assay [3] (setting [10]). Further, the pest or weed control at 500 g/ha in assay [1] (setting [5]) amounted to 100%; in assay [2] (setting [9]), 0%; in assay [3] (setting [11]), 100%. Further, in the assay on rice (Oryza sativa) (setting [6]), the plant injury at 125 g/ha stood at 0%. Moreover, the plant injury at 500 g/ha in the assay with rice (Oryza sativa) (setting [7]) turned out to be 0%.
Take `COC(=O)c1nc(-c2ccc(Br)cc2)nc(N)c1Cl` [Compound 96, methyl 6-amino-2-(4-bromophenyl)-5-chloro-4-pyrimidinecarboxylate]: the pest or weed control at 125 g/ha is 90% in assay [1] (setting [4]), 0% in assay [2] (setting [8]) and 100% in assay [3] (setting [10]). The pest or weed control at 500 g/ha in assay [1] (setting [5]) stood at 90%; in assay [2] (setting [9]), 10%; in assay [3] (setting [11]), 100%. Moreover, the plant injury at 125 g/ha in the assay with rice (Oryza sativa) (setting [6]) worked out at 0%. For the same compound, the plant injury at 500 g/ha in the assay with rice (Oryza sativa) (setting [7]) worked out at 0%.

For the origin of these results see patent US8802597B2, “Herbicidal pyrimidines” (E I du Pont de Nemours and Company, priority 2003, dated 2014).
